This is an account of results in patent US20230242585A1, “IMMUNOMODULATORS” (Bristol-Myers Squibb Company, priority 2020, published 2023).

Starred links: 1 amine or outer side, 2 acyl side, 3 side chain; linkers in the order of their positions; H or OH if unused. Positions of bridges follow the written chain, without caps; N, C: chain ends. Non-standard residues stand in square brackets, D forms with d. Residues, ends and D or L forms follow the SMILES beside them. X53 = O=C([C@H](CCNC[C@H](O)[C@@H](O)[C@H](O)C(O)CO[C@H]1O[C@H](CO)[C@H](O)[C@H](O)[C@H]1O)N[*:1])[*:2]; X39 = O=C([C@H](CNC[C@H](O)[C@@H](O)[C@H](O)C(O)CO[C@H]1O[C@H](CO)[C@H](O)[C@H](O)[C@H]1O)N[*:1])[*:2]; X54 = O=C([C@H](CCNC[C@@H](O)C(O)[C@H](O[C@@H]1OC(CO)[C@@H](O)C(O)C1O)C(O)CO)N[*:1])[*:2]; X42 = O=C([C@H](CNC[C@@H](O)C(O)[C@H](O[C@@H]1OC(CO)[C@@H](O)C(O)C1O)C(O)CO)N[*:1])[*:2]; X66 = C[C@H](O)[C@H](O)[C@@H](O)[C@@H](O)CNCC[C@H](N[*:1])C(=O)[*:2]; X52 = C[C@H](O)[C@H](O)[C@@H](O)[C@@H](O)CNC[C@H](N[*:1])C(=O)[*:2]; Trp(1-CH2COOH) = N[C@@H](Cc1cn(CC(=O)O)c2ccccc12)C(=O)O; X37 = O=C([C@H](CNCC[C@@H](O)C(O)CO)N[*:1])[*:2]; X38 = O=C([C@H](CCNCC[C@H](O)C(O)CO)N[*:1])[*:2]; Hyp = O=C(O)[C@@H]1C[C@@H](O)CN1; NMeNle = CCCC[C@H](NC)C(=O)O; NMeA = CN[C@@H](C)C(=O)O; Dab = NCC[C@H](N)C(=O)O

T1 sequence (Q9NZQ7 18-239): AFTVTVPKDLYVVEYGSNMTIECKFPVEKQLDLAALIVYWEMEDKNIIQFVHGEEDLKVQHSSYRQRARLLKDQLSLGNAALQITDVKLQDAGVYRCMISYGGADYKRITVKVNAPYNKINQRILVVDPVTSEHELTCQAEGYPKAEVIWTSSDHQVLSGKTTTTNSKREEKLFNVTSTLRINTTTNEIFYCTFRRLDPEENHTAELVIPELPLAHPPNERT

The test has as its target T1, PD-1/PD-L1 (Homo sapiens, UniProt Q9NZQ7).
T1 construct: TVMV protease site (linker) (C); made in house; host or cells: HEK293T cells
Kind of test: PD-1/PD-L1 Homogenous Time-Resolved Fluorescence (HTRF) binding assay. The note with it: PD-L1-His 10 nM, PD-1-Ig 20 nM. The gist of the method:
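Compounds preincubated 15 min with PD-L1-His (residues 18-239, 10 nM) in dPBS with 0.1% BSA, 0.05% Tween-20, then PD-1-Ig (residues 25-167, 20 nM) for 15 min. Eu-cryptate anti-Ig (1 nM) and APC anti-His (20 nM) equilibrated 30 min; 665/620 nm ratio read, IC50 derived.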
(In general: TR-FRET usually uses a lanthanide donor and a delayed reading to cut background.)
A word on the IC50: it is the midpoint of a concentration-inhibition curve. The low end stands for higher potency, the high end for lower potency. The compound `CCCC[C@H]1C(=O)N(C)[C@@H](CCCC)C(=O)N[C@@H](CC(C)C)C(=O)N[C@H](C(=O)NCC(N)=O)CSCC(=O)N[C@@H](Cc2ccc(O)cc2)C(=O)N(C)[C@@H](C)C(=O)N[C@@H](CC(N)=O)C(=O)N2CCC[C@H]2C(=O)N[C@@H](CNCC[C@@H](O)C(O)CO)C(=O)N[C@@H](CC(C)C)C(=O)N2C[C@H](O)C[C@H]2C(=O)N[C@@H](Cc2c[nH]c3ccccc23)C(=O)N[C@@H](CCNCC[C@H](O)C(O)CO)C(=O)N[C@@H](Cc2cn(CC(=O)O)c3ccccc23)C(=O)N1C` (stereo partly drawn) [Example 2038] ({CH2CO}-Y[NMeA]NP[X37]L[Hyp]W[X38][Trp(1-CH2COOH)][NMeNle][NMeNle]LCG-NH2; thioether N-14) had an IC50 of 6.7 nM.

`CCCC[C@H]1C(=O)N(C)[C@@H](CCCC)C(=O)N[C@@H](CC(C)C)C(=O)N[C@H](C(=O)NCC(N)=O)CSCC(=O)N[C@@H](Cc2ccc(O)cc2)C(=O)N(C)[C@@H](C)C(=O)N[C@@H](CC(N)=O)C(=O)N2CCC[C@H]2C(=O)N[C@@H](CNC[C@@H](O)C(O)[C@H](O[C@@H]2OC(CO)[C@@H](O)C(O)C2O)C(O)CO)C(=O)N[C@@H](CC(C)C)C(=O)N2C[C@H](O)C[C@H]2C(=O)N[C@@H](Cc2c[nH]c3ccccc23)C(=O)N[C@@H](CCN)C(=O)N[C@@H](Cc2cn(CC(=O)O)c3ccccc23)C(=O)N1C` (stereo partly drawn) [Example 2039] ({CH2CO}-Y[NMeA]NP[X42]L[Hyp]W[Dab][Trp(1-CH2COOH)][NMeNle][NMeNle]LCG-NH2; thioether N-14) had a half-inhibitory concentration (IC50) of 5.2 nM.

As for `CCCC[C@H]1C(=O)N(C)[C@@H](CCCC)C(=O)N[C@@H](CC(C)C)C(=O)N[C@H](C(=O)NCC(N)=O)CSCC(=O)N[C@@H](Cc2ccc(O)cc2)C(=O)N(C)[C@@H](C)C(=O)N[C@@H](CC(N)=O)C(=O)N2CCC[C@H]2C(=O)N[C@@H](CNC[C@@H](O)C(O)[C@H](O[C@@H]2OC(CO)[C@@H](O)C(O)C2O)C(O)CO)C(=O)N[C@@H](CC(C)C)C(=O)N2C[C@H](O)C[C@H]2C(=O)N[C@@H](Cc2c[nH]c3ccccc23)C(=O)N[C@@H](CCNC[C@@H](O)C(O)[C@H](O[C@@H]2OC(CO)[C@@H](O)C(O)C2O)C(O)CO)C(=O)N[C@@H](Cc2cn(CC(=O)O)c3ccccc23)C(=O)N1C` (stereo partly drawn) [Example 2040] ({CH2CO}-Y[NMeA]NP[X42]L[Hyp]W[X54][Trp(1-CH2COOH)][NMeNle][NMeNle]LCG-NH2; thioether N-14), the 50% inhibitory concentration (IC50) was 6.3 nM.

In turn, `CCCC[C@H]1C(=O)N(C)[C@@H](CCCC)C(=O)N[C@@H](CC(C)C)C(=O)N[C@H](C(=O)NCC(N)=O)CSCC(=O)N[C@@H](Cc2ccc(O)cc2)C(=O)N(C)[C@@H](C)C(=O)N[C@@H](CC(N)=O)C(=O)N2CCC[C@H]2C(=O)N[C@@H](CNC[C@H](O)[C@@H](O)[C@H](O)C(O)CO[C@H]2O[C@H](CO)[C@H](O)[C@H](O)[C@H]2O)C(=O)N[C@@H](CC(C)C)C(=O)N2C[C@H](O)C[C@H]2C(=O)N[C@@H](Cc2c[nH]c3ccccc23)C(=O)N[C@@H](CCNC[C@H](O)[C@@H](O)[C@H](O)C(O)CO[C@H]2O[C@H](CO)[C@H](O)[C@H](O)[C@H]2O)C(=O)N[C@@H](Cc2cn(CC(=O)O)c3ccccc23)C(=O)N1C` (stereo partly drawn) [Example 2041] ({CH2CO}-Y[NMeA]NP[X39]L[Hyp]W[X53][Trp(1-CH2COOH)][NMeNle][NMeNle]LCG-NH2; thioether N-14) came in with an IC50 of 7.2 nM.

Consider `CCCC[C@H]1C(=O)N(C)[C@@H](CCCC)C(=O)N[C@@H](CC(C)C)C(=O)N[C@H](C(=O)NCC(N)=O)CSCC(=O)N[C@@H](Cc2ccc(O)cc2)C(=O)N(C)[C@@H](C)C(=O)N[C@@H](CC(N)=O)C(=O)N2CCC[C@H]2C(=O)N[C@@H](CNC[C@H](O)[C@H](O)[C@@H](O)[C@H](C)O)C(=O)N[C@@H](CC(C)C)C(=O)N2C[C@H](O)C[C@H]2C(=O)N[C@@H](Cc2c[nH]c3ccccc23)C(=O)N[C@@H](CCN)C(=O)N[C@@H](Cc2cn(CC(=O)O)c3ccccc23)C(=O)N1C` [Example 2042] ({CH2CO}-Y[NMeA]NP[X52]L[Hyp]W[Dab][Trp(1-CH2COOH)][NMeNle][NMeNle]LCG-NH2; thioether N-14), for which the IC50 was 6.7 nM.

Compound `CCCC[C@H]1C(=O)N(C)[C@@H](CCCC)C(=O)N[C@@H](CC(C)C)C(=O)N[C@H](C(=O)NCC(N)=O)CSCC(=O)N[C@@H](Cc2ccc(O)cc2)C(=O)N(C)[C@@H](C)C(=O)N[C@@H](CC(N)=O)C(=O)N2CCC[C@H]2C(=O)N[C@@H](CNC[C@H](O)[C@H](O)[C@@H](O)[C@H](C)O)C(=O)N[C@@H](CC(C)C)C(=O)N2C[C@H](O)C[C@H]2C(=O)N[C@@H](Cc2c[nH]c3ccccc23)C(=O)N[C@@H](CCNC[C@H](O)[C@H](O)[C@@H](O)[C@H](C)O)C(=O)N[C@@H](Cc2cn(CC(=O)O)c3ccccc23)C(=O)N1C` [Example 2044] ({CH2CO}-Y[NMeA]NP[X52]L[Hyp]W[X66][Trp(1-CH2COOH)][NMeNle][NMeNle]LCG-NH2; thioether N-14) displayed an IC50 of 12 nM.
